Consider six compounds from patent US7943629B2, “Sulphimides as protein kinase inhibitors” (Bayer Schering Pharma AG, priority 2006, dated 2011).

In one assay the target is T1, CDK1/CycB (Homo sapiens, UniProt P06493).
T1 construct: GST; purchased ProQinase GmbH, Freiburg; host or cells: baculovirus-infected insect cells (Sf9)
Kind of assay: CDK1/CycB kinase assay. In kind it is biochemical. Conditions: 0.5 μM ATP, histone IIIS, 22° C., 10 min. As to the method: Recombinant CDK1- and CycB-GST fusion proteins, purified from baculovirus-infected insect cells (Sf9), were purchased from ProQinase GmbH, Freiburg. The histone IIIS used as kinase substrate can be purchased from Sigma. CDK1/CycB (200 ng/measurement point) was incubated in the presence of various concentrations of test substances (0 μM, and within the range 0.01-100 μM) in assay buffer [50 mM Tris/HCl pH 8.0, 10 mM MgCl2, 0.1 mM Na ortho-vanadate, 1.0 mM dithiothreitol, 0.5 μM ATP, 10 μg/measurement point histone IIIS, 0.2 μCi/measurement point ^33P-gamma-ATP, 0.05% NP40, 1.25% dimethyl sulphoxide] at 22° C. for 10 min. The reaction was stopped by adding EDTA solution (250 mM, pH 8.0, 15 μl/measurement point).
15 μl of each reaction mixture were loaded onto P30 filter strips (from Wallac), and non-incorporated ^33P-ATP was removed by washing the filter strips three times in 0.5% strength phosphoric acid for 10 min each time. After the filter strips had been dried at 70° C. for 1 hour, the filter strips were covered with scintillator strips (MeltiLex™ A, from Wallac) and baked at 90° C. for 1 hour. The amount of incorporated ^33P (substrate phosphorylation) was determined by scintillation measurement in a gamma radiation counter (Wallac).

In a further assay the test system is MCF7 breast tumour cells. Kind of assay: MCF7 proliferation assay. In kind it is cell-based, human. Conditions: for IC50: Homo sapiens, MCF7, 96 h, 4 days incubation, crystal violet staining; for antiproliferative activity, MCF7 (in words): summary of Tab. 2. Here is the method: Cultivated human MCF7 breast tumour cells (ATCC HTB-22) were plated out in a density of 5000 cells/measurement point in 200 μl of growth medium (RPMI1640, 10% foetal calf serum, 2 mU/mL insulin, 0.1 nM oestradiol) in a 96-well multititre plate. After 24 hours, the cells from a plate (zero plate) were stained with crystal violet (see below), while the medium in the other plates was replaced by fresh culture medium (200 μl) to which the test substances had been added in various concentrations (0 μM, and in the range 0.1-30 μM; the final concentration of the solvent dimethyl sulphoxide was 0.5%). The cells were incubated in the presence of the test substances for 4 days. The cell proliferation was determined by staining the cells with crystal violet: the cells were fixed by adding 20 μl/measurement point of an 11% strength glutaraldehyde solution at room temperature for 15 min. After the fixed cells had been washed three times with water, the plates were dried at room temperature. The cells were stained by adding 100 μl/measurement point of a 0.1% strength crystal violet solution (pH adjusted to pH 3 by adding acetic acid). After the stained cells had been washed three times with water, the plates were dried at room temperature. The dye was dissolved by adding 100 μl/measurement point of a 10% strength acetic acid solution, and the extinction was determined by photometry at a wavelength of 595 nm. The percentage change in cell growth was calculated by normalizing the measurements to the extinctions of the zero point plate (=0%) and the extinction of the untreated (0 μM) cells (=100%). The IC50 values were determined by means of a 4-parameter fit using the company's own software.

For a further assay, the target named is T2, CDK2/CycE (Homo sapiens, UniProt P24941).
T2 construct: GST; purchased ProQinase GmbH, Freiburg; host or cells: baculovirus-infected insect cells (Sf9)
Kind of assay: CDK2/CycE kinase assay. Type of assay: biochemical. Particulars: for IC50: 0.5 μM ATP, histone IIIS, 22° C., 10 min; for inhibition of CDK2 kinase (in words): summary of Tab. 1. As to the method:
Recombinant CDK2- and CycE-GST fusion proteins, purified from baculovirus-infected insect cells (Sf9), were purchased from ProQinase GmbH, Freiburg. The histone IIIS used as kinase substrate was purchased from Sigma.
CDK2/CycE (50 ng/measurement point) was incubated in the presence of various concentrations of test substances (0 μM, and within the range 0.01-100 μM) in assay buffer [50 mM Tris/HCl pH 8.0, 10 mM MgCl2, 0.1 mM Na ortho-vanadate, 1.0 mM dithiothreitol, 0.5 μM ATP, 10 μg/measurement point histone IIIS, 0.2 μCi/measurement point ^33P-gamma-ATP, 0.05% NP40, 1.25% dimethyl sulphoxide] at 22° C. for 10 min. The reaction was stopped by adding EDTA solution (250 mM, pH 8.0, 15 μl/measurement point).
15 μl of each reaction mixture were loaded onto P30 filter strips (from Wallac), and non-incorporated ^33P-ATP was removed by washing the filter strips three times in 0.5% strength phosphoric acid for 10 min each time.
After the filter strips had been dried at 70° C. for 1 hour, the filter strips were covered with scintillator strips (MeltiLex™ A, from Wallac) and baked at 90° C. for 1 hour. The amount of incorporated ^33P (substrate phosphorylation) was determined by scintillation measurement in a gamma radiation counter (Wallac).

Another assay concerns the target T3, KDR (VEGFR2) (Homo sapiens, UniProt P35968).
T3 construct: made in house; host or cells: E. coli
Kind of assay: KDR kinase assay. In kind it is biochemical. Conditions: 10 μM ATP, 22° C., 45 min, HTRF. As to the method:
Recombinant KDR protein was expressed in E. coli and then purified. The kinase substrate used was the biotinylated peptide having the amino acid sequence biotin-DFGLARDMYDKEYYSVG, which was purchased from Biosynthan. KDR [test volume 5 μl] was incubated in the presence of various concentrations of test substances (0 μM, and 10 measurement points within the range 0.001-20 μM in duplicate) in assay buffer [50 mM HEPES pH 7.0, 25.0 mM MgCl2, […], 0.1 mM Na ortho-vanadate, 1.0 mM dithiothreitol, 0.001% NP40, 10 μM ATP, 0.03 μM substrate peptide […], 1.0% dimethyl sulphoxide] at 22° C. for 45 min. The reaction was stopped by adding 5 μl of an EDTA/detection solution [50 mM HEPES pH 7.5, 125 mM EDTA, 0.2% BSA, 0.1 μM streptavidin-XLent (from CisBio), 2 nM PT66-Eu (from PerkinElmer)]. The fluorescence emission at 620 nm and 665 nm after excitation with light of the wavelength 350 nm was measured in a Rubystar HTRF instrument from BMG Labsystems.
The measured data (ratio of emission 665 divided by emission 620 multiplied by 10 000) were normalized to 0% inhibition (enzyme reaction without inhibitor) and 100% inhibition (all assay components apart from enzyme). The IC50 values were determined by means of a 4-parameter fit using the company's own software.
For orientation: Time-resolved FRET reads energy transfer from a long-lived donor to a nearby acceptor.

The target in the next assay is T4, Aurora-C (Homo sapiens, UniProt Q9UQB9).
T4 construct: made in house; host or cells: transiently transfected HEK293 cells
T4 sequence (Q9UQB9 1-309): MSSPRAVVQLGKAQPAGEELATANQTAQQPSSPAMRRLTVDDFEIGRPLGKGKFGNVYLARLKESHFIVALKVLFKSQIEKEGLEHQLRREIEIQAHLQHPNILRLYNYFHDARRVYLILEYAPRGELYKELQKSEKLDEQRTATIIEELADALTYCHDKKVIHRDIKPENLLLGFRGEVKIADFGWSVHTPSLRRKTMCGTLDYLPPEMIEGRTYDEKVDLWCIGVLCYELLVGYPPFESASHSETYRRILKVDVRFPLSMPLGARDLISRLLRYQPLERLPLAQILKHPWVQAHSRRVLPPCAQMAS
Kind of assay: Aurora-C kinase assay. Conditions: for IC50: 3 μM ATP, 22° C., 90 min; for inhibition of Aurora C kinase (in words): summary of Tab. 1. In kind it is biochemical. As to the method: Recombinant Aurora-C protein was expressed in transiently transfected HEK293 cells and then purified. The kinase substrate used was the biotinylated peptide having the amino acid sequence biotin-FMRLRRLSTKYRT, which was purchased from Jerini AG in Berlin.
Aurora-C [5 nM in the test mixture, test volume 5 μl] was incubated in the presence of various concentrations of test substances (0 μM and 10 measurement points within the range 0.001-20 μM in duplicate) in assay buffer [25 mM HEPES pH 7.4, 0.5 mM MnCl2, 0.1 mM Na ortho-vanadate, 2.0 mM dithiothreitol, 0.05% bovine serum albumin (BSA), 0.01% Triton X-100, 3 μM adenosine trisphosphate (ATP), 0.67 nCi/μl gamma-^33P-ATP, 2.0 μM substrate peptide biotin-FMRLRRLSTKYRT, 1.0% dimethyl sulphoxide] at 22° C. for 90 min. The reaction was stopped by adding 12.5 μl of an EDTA/detection solution [16 mM EDTA, 40 mM ATP, 0.08% Triton X-100, 4 mg/ml PVT streptavidin SPA beads (from Amersham)]. After incubation for 10 minutes, the SPA beads were pelleted by centrifugation at 1000×G for 10 minutes. Measurement took place in a PerkinElmer Topcount scintillation counter. The measured data were normalized to 0% inhibition (enzyme reaction without inhibitor) and 100% inhibition (enzyme reaction in the presence of 0.1 μM staurosporine (from Sigma)). The IC50 values were determined by means of a 4-parameter fit using the company's own software.

T3 sequence (P35968 20-1356, species assumed): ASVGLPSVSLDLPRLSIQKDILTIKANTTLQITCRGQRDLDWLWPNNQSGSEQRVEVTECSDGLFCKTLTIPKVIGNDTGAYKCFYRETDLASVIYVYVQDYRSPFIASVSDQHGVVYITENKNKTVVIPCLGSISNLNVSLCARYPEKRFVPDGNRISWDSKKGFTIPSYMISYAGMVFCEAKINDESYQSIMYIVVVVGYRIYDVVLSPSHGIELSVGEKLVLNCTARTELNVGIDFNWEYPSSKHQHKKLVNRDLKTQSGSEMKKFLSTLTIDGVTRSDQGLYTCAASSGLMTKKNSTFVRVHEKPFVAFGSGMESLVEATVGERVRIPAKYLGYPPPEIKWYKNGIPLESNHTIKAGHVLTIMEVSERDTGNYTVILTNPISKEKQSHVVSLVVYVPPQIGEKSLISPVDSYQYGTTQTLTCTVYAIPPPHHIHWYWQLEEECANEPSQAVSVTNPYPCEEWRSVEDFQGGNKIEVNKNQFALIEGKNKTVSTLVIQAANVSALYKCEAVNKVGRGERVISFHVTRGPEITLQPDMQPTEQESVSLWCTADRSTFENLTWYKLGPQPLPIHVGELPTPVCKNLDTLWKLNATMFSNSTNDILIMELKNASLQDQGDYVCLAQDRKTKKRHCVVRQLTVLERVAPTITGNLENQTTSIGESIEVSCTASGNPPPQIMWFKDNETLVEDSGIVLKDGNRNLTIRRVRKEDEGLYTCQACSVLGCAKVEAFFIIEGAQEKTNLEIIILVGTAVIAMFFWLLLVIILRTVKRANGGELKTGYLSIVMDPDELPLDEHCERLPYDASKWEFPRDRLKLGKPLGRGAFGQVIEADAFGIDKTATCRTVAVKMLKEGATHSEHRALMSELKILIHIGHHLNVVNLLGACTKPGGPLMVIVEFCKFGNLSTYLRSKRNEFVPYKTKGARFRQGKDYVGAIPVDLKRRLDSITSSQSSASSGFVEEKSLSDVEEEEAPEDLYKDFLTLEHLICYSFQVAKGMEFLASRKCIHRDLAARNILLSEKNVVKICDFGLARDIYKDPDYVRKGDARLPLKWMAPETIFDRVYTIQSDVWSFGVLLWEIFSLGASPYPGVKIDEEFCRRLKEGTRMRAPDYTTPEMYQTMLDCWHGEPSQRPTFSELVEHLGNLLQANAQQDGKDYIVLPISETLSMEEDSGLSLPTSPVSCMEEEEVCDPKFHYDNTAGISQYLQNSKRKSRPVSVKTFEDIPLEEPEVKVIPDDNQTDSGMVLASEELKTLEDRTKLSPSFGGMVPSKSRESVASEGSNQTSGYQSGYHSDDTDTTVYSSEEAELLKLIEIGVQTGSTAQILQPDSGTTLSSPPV
T1 sequence (P06493 whole entry): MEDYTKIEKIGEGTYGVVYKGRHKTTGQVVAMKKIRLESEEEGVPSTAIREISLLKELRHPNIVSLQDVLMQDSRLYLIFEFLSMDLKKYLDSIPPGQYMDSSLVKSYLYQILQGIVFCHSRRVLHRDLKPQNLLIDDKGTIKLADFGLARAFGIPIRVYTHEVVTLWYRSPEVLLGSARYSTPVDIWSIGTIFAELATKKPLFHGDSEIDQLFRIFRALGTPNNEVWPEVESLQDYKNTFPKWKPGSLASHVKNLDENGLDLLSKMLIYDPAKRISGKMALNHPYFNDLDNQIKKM
T1 sequence (P14635 whole entry partner): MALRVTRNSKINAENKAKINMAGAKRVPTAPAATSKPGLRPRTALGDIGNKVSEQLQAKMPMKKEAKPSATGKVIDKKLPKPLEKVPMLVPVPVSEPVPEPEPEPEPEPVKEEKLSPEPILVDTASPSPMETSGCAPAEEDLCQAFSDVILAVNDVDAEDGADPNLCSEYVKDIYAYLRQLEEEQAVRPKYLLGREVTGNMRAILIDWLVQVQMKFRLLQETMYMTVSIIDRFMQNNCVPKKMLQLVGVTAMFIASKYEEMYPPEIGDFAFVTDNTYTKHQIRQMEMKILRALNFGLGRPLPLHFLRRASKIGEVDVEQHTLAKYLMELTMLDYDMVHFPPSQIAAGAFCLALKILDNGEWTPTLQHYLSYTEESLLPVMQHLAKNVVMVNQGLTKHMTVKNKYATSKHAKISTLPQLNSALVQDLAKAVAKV

By IC50 is commonly meant the concentration that gives 50% inhibition. Higher therefore signals a need for much substance. Consider `Cc1ccc(S(=O)(=O)N=S(C)c2ccc(Nc3ncc(Br)c(N[C@H](C)CO)n3)cc2)cc1` (mixture of isomers) [Example 8, (RS)—S-{4-[(5-Bromo-4-{[(R)-2-hydroxy-1-methylethyl]amino}pyrimidin-2-yl)-amino]phenyl}-S-methyl-N-(tolylsulphonyl)sulphimide], for which the IC50 on CDK1/CycB came to 620 nM; with MCF7 breast tumour cells it was 900 nM; at CDK2/CycE, 99 nM; at KDR (VEGFR2), 22 nM; at Aurora-C, 360 nM. Further, the “inhibition of Aurora C kinase (in words)” value on Aurora-C is recorded as “inhibits”.
Consider `Cc1ccc(S(=O)(=O)N=S(C)c2ccc(Nc3ncc(Br)c(N[C@H](C)C(C)(C)O)n3)cc2)cc1` (mixture of isomers) [Example 9, (RS)—S-{4-[(5-Bromo-4-{[(R)-2-hydroxy-1,2-dimethylpropyl]amino}pyrimidin-2-yl)amino]phenyl}-S-methyl-N-(tolylsulphonyl)sulphimide], for which the half-inhibitory concentration (IC50) at CDK1/CycB was 150 nM; in the assay with MCF7 breast tumour cells it was under 100 nM; on CDK2/CycE it was 28 nM; against KDR (VEGFR2), 36 nM; against Aurora-C, 360 nM. In the assay on MCF7 breast tumour cells, the “antiproliferative activity, MCF7 (in words)” value (from here on “antiproliferative activity”) was “excellent antiproliferative activity”. Also, the “inhibition of CDK2 kinase (in words)” value against CDK2/CycE is “shows inhibition”.
For the compound `C[C@@H](Nc1nc(Nc2ccc(S(C)=NS(=O)(=O)c3cnccc3Cl)cc2)ncc1Br)C(C)(C)O` (mixture of isomers) [Example 11, (RS)—S-{4-[(5-Bromo-4-{[(R)-2-hydroxy-1,2-dimethylpropyl]amino}pyrimidin-2-yl)amino]phenyl}-N-[(4-chloro-3-pyridyl)sulphonyl]-S-methylsulphimide], the IC50 at CDK1/CycB was 90 nM; in the assay with MCF7 breast tumour cells, under 100 nM; against CDK2/CycE, 14 nM; against KDR (VEGFR2), 44 nM; at Aurora-C, 370 nM. Moreover, the “inhibition of CDK2 kinase (in words)” value at CDK2/CycE is on record as “active”. Further, the “inhibition of Aurora C kinase (in words)” value on Aurora-C was “active”.
Take `COc1ccc(S(=O)(=O)N=S(C)c2ccc(Nc3ncc(Br)c(N[C@H](C)C(C)(C)O)n3)cc2)cc1` (mixture of isomers) [Example 12, (RS)—S-{4-[(5-Bromo-4-{[(R)-2-hydroxy-1,2-dimethylpropyl]amino}pyrimidin-2-yl)amino]phenyl}-N-[(4-methoxyphenyl)sulphonyl]-S-methylsulphimide]: the IC50 stood at 160 nM against CDK1/CycB; 200 nM in the assay with MCF7 breast tumour cells; 39 nM against CDK2/CycE; 38 nM against KDR (VEGFR2); 480 nM at Aurora-C.
Take `C[C@@H](Nc1nc(Nc2ccc(S(C)=NS(=O)(=O)Cc3ccccc3)cc2)ncc1Br)C(C)(C)O` (mixture of isomers) [Example 13, (RS)—N—(Benzylsulphonyl)-S-{4-[(5-bromo-4-{[(R)-2-hydroxy-1,2-dimethylpropyl]-amino}pyrimidin-2-yl)amino]phenyl}-S-methylsulphimide]: the half-maximal inhibitory concentration (IC50) is 140 nM on CDK1/CycB; 110 nM with MCF7 breast tumour cells; 28 nM against CDK2/CycE; 15 nM at KDR (VEGFR2); 660 nM at Aurora-C. The “antiproliferative activity” value with MCF7 breast tumour cells is “excellent antiproliferative activity”.
For the compound `C[C@@H](Nc1nc(Nc2ccc(S(C)=NS(=O)(=O)C(F)(F)F)cc2)ncc1Br)C(C)(C)O` (mixture of isomers) [Example 14, (RS)—S-{4-[(5-Bromo-4-{[(R)-2-hydroxy-1,2-dimethylpropyl]amino}pyrimidin-2-yl)amino]phenyl}-S-methyl-N-[(trifluoromethyl)sulphonyl]sulphimide], the half-inhibitory concentration (IC50) was found to be 120 nM against CDK1/CycB; 110 nM in the assay on MCF7 breast tumour cells; 39 nM on CDK2/CycE; 70 nM on KDR (VEGFR2); 990 nM against Aurora-C. Besides, the “antiproliferative activity” value in the assay on MCF7 breast tumour cells is on record as “excellent antiproliferative activity”.
